Measured values as given in patent US8871753B2, “Macrocyclic compounds and their use as kinase inhibitors” (Incyte Corporation, priority 2008, dated 2014).
Counter-ions that a name gives are not always drawn. Like-named read-outs stand apart in the source and are kept apart here.

Columns and labels:
Format in all cases: biochemical
[1] = biological target: T1, human JAK3 (a.a. 781-1124) (Homo sapiens, UniProt P52333); assay: In vitro JAK kinase assay (HTRF, phosphorylation of a biotinylated peptide), JAK3
T1 construct: JAK3 (a.a. 781-1124); His tag (N); made in house; host or cells: insect cells (baculovirus)
Outline: (§1)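 Phosphorylation of a biotinylated peptide by the JAK kinase domain, detected by HTRF with Eu-Py20 and SA-APC. ATP was 90 μM for JAK1, 30 μM for JAK2 and 3 μM for JAK3. Reactions ran 1 h at room temperature and were stopped with EDTA, followed by 40 min antibody binding.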

[2] = biological target: T2, human JAK2 (a.a. 828-1132) (Homo sapiens, UniProt O60674); assay: In vitro JAK kinase assay (HTRF, phosphorylation of a biotinylated peptide), JAK2
T2 construct: JAK2 (a.a. 828-1132); His tag (N); made in house; host or cells: insect cells (baculovirus)
Outline: as §1

TYK2 = TYK2 (Homo sapiens, UniProt P29597); assay: TYK2 kinase inhibition (Table A1)
[3] = biological target: T3, human JAK1 (a.a. 837-1142) (Homo sapiens, UniProt P23458); assay: In vitro JAK kinase assay (HTRF, phosphorylation of a biotinylated peptide), JAK1; settings: read-out: JAK1 IC50
T3 construct: human JAK1 (a.a. 837-1142); His tag (N); made in house; host or cells: insect cells (baculovirus)
Outline: as §1

T2 sequence (O60674 828-1132): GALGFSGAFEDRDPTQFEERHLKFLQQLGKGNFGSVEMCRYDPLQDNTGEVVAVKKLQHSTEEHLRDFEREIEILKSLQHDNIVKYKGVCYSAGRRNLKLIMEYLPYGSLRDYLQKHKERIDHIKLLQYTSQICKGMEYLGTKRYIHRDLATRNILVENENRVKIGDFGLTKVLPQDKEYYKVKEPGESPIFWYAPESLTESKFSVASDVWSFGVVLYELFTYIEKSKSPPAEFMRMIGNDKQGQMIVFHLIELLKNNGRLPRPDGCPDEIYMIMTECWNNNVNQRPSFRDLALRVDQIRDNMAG
Chain of TYK2 (P29597 whole entry): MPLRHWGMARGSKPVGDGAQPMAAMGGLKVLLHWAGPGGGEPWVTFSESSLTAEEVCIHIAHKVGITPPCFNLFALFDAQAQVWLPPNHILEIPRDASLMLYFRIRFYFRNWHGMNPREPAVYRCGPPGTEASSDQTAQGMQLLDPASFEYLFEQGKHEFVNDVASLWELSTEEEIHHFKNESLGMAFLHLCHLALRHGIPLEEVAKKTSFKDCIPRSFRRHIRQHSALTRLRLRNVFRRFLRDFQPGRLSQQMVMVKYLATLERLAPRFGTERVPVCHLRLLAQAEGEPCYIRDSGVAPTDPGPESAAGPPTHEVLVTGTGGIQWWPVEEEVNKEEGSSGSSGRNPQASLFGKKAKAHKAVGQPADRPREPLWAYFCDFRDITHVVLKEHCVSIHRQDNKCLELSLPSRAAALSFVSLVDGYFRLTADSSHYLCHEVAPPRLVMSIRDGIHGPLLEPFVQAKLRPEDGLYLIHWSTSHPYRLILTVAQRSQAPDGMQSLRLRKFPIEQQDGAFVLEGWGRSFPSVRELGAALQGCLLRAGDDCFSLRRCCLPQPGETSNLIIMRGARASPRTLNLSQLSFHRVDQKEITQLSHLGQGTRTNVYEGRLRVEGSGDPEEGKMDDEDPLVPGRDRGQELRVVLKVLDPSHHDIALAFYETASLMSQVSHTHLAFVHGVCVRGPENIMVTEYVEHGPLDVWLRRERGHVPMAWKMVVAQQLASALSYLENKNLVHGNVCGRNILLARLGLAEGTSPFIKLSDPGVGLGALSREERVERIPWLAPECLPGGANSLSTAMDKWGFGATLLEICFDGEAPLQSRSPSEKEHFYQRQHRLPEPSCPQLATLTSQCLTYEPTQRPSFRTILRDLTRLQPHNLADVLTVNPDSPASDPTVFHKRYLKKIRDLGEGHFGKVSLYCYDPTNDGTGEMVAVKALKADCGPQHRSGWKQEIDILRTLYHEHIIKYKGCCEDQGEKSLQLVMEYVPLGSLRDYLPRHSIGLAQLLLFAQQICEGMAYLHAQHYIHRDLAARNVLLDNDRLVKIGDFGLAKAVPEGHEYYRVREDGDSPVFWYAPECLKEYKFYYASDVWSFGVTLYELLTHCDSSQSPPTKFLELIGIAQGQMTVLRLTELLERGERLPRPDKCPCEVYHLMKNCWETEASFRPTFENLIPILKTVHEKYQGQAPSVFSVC
T3 sequence (P23458 849-1154): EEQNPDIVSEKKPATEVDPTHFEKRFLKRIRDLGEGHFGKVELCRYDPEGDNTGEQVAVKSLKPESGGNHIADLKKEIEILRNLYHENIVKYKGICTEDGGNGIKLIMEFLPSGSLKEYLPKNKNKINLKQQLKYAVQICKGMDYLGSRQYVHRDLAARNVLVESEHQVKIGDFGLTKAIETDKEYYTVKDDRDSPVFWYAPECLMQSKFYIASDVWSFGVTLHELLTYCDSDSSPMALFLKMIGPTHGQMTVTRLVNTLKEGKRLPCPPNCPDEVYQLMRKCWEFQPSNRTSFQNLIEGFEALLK
T1 sequence (P52333 781-1124): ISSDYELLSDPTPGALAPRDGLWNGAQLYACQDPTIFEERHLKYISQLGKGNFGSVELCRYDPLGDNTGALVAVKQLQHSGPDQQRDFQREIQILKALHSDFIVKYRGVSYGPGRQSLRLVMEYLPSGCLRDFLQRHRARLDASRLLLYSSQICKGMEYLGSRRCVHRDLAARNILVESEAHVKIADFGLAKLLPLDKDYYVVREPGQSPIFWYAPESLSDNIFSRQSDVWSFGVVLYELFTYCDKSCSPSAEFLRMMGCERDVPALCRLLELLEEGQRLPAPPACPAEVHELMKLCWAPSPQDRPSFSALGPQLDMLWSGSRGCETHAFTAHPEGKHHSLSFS

Row | SMILES | IC50 ([1]; Table D1) | IC50 ([2]; Table D1) | IC50 (TYK2; Table D1) | IC50 ([3]; Table D1) | IC50 ([1]; Table B1) | IC50 ([2]; Table B1) | IC50 (TYK2; Table B1) | IC50 ([3]; Table B1)
1 | O=C(c1ccncc1)N1CCC(CCOc2ccc3cc2CCc2cncc(c2)Nc2ncc(Cl)c(n2)N3)CC1 [Example D181, 6-Chloro-12-[2-(1-isonicotinoylpiperidin-4-yl)ethoxy]-2,4,8,18,22-pentaazatetracyclo[14.3.1.1(3,7).1(9,13)]docosa-1(20),3(22),4,6,9(21),10,12,16,18-nonaene tris(trifluoroacetate)] | > 400 nM | 313 nM | > 400 nM | 115 nM |  |  |  | 
2 | CNC(=O)N1CCN(C(=O)COc2ccc3cc2CCc2cncc(c2)Nc2ncc(Cl)c(n2)N3)CC1 [Example D265, 4-({[6-Chloro-2,4,8,18,22-pentaazatetracyclo[14.3.1.1(3,7).1(9,13)]docosa-1(20),3(22),4,6,9(21),10,12,16,18-nonaen-12-yl]oxy}acetyl)-N-methylpiperazine-1-carboxamide bis(trifluoroacetate)] | > 400 nM | 235 nM | > 400 nM | 34 nM |  |  |  | 
3 | N#Cc1ccc(C(=O)N2CCN(c3ccc4cc3CCc3cccc(c3)Nc3ncc(Cl)c(n3)N4)CC2)cc1 [Example D95, 4-({4-[6-Chloro-2,4,8,22-tetraazatetracyclo[14.3.1.1(3,7).1(9,13)]docosa-1(20),3(22),4,6,9(21),10,12,16,18-nonaen-12-yl]piperazin-1-yl}carbonyl)benzonitrile bis(trifluoroacetate)] | 87 nM | 15 nM | 106 nM | 25 nM |  |  |  | 
4 | O=C(COc1ccc2cc1CCc1cncc(c1)Nc1ncc(Cl)c(n1)N2)N1CCN(c2ccccc2)CC1 [Example D234, 6-Chloro-12-[2-oxo-2-(4-phenylpiperazin-1-yl)ethoxy]-2,4,8,18,22-pentaazatetracyclo[14.3.1.1(3,7).1(9,13)]docosa-1(20),3(22),4,6,9(21),10,12,16,18-nonaene tris(trifluoroacetate)] | > 400 nM | 160 nM | > 400 nM | 41 nM |  |  |  | 
5 | O=C(Nc1ccc(C(F)(F)F)cc1)N1CCN(c2ccc3cc2CCc2cccc(c2)Nc2ncc(Cl)c(n2)N3)CC1 [Example D90, 4-[6-Chloro-2,4,8,22-tetraazatetracyclo[14.3.1.1(3,7).1(9,13)]docosa-1(20),3(22),4,6,9(21),10,12,16,18-nonaen-12-yl]-N-[4-(trifluoromethyl)phenyl]piperazine-1-carboxamide bis(trifluoroacetate)] | 108 nM | 23 nM | 70 nM | 127 nM |  |  |  | 
6 | O=C(Nc1ccc2cc1CCc1cccc(c1)Nc1ncc(Cl)c(n1)N2)N1CCCC1 [Example B81, N-[6-Chloro-2,4,8,22-tetraazatetracyclo[14.3.1.1(3,7).1(9,13)]docosa-1(20), 3(22),4,6,9(21),10,12,16,18-nonaen-12-yl]pyrrolidine-1-carboxamide trifluoroacetate] |  |  |  |  | 475 nM | 123 nM | 221 nM | 109 nM
7 | O=C(COc1ccc2cc1CCc1cncc(c1)Nc1ncc(Cl)c(n1)N2)N1CCN(c2ccc(F)cc2)CC1 [Example D242, 6-Chloro-12-{2-[4-(4-fluorophenyl)piperazin-1-yl]-2-oxoethoxy}-2,4,8,18,22-pentaazatetracyclo[14.3.1.1(3,7).1(9,13)]docosa-1(20),3(22),4,6,9(21),10,12,16,18-nonaene tris(trifluoroacetate)] | > 400 nM | 159 nM | > 400 nM | 46 nM |  |  |  | 
8 | O=C(COc1ccc2cc1CCc1cncc(c1)Nc1ncc(Cl)c(n1)N2)N1CCN(c2nccs2)CC1 [Example D230, 6-Chloro-12-{2-oxo-2-[4-(1,3-thiazol-2-yl)piperazin-1-yl]ethoxy}-2,4,8,18,22-pentaazatetracyclo[14.3.1.1(3,7).1(9,13)]docosa-1(20),3(22),4,6,9(21),10,12,16,18-nonaene tris(trifluoroacetate)] | > 400 nM | 47 nM | > 400 nM | 25 nM |  |  |  | 
